Experimental data as given in ChEMBL document CHEMBL5465560, “Selectivity Literature for EUbOPEN Chemogenomic Library” (2024).
Each block holds one compound with its values, some of them ahead of it.

Experiments:
[1] = target: Voltage-dependent N-type calcium channel subunit alpha-1B (Homo sapiens) (UniProt Q00975); experiment: Selectivity interaction (Eurofins CEREP Diversity Profile (receptors and ion channels)) EUB0000279b CACNA1B; conditions: at 10 µM
[2] = target: T1, Muscarinic acetylcholine receptor M1 (Homo sapiens) (UniProt P11229); experiment: Selectivity interaction (Eurofins CEREP Diversity Profile (receptors and ion channels)) EUB0000279b CHRM1; conditions: at 10 µM
T1 sequence (whole entry): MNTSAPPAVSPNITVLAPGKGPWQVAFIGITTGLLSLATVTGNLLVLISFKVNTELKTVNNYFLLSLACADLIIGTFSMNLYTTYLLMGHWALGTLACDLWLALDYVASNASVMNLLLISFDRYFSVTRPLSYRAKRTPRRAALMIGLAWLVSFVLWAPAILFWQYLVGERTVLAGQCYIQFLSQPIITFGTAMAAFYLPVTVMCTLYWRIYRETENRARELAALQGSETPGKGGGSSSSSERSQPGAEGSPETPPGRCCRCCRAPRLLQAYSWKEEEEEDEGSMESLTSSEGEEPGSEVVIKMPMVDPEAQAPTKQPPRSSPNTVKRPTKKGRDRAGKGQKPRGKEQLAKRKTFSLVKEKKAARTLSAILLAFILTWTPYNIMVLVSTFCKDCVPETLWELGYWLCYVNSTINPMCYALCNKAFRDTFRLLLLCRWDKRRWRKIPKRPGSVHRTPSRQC

[3] = target: T2, Serine/threonine-protein kinase LATS2 (Homo sapiens) (UniProt Q9NRM7); experiment: Selectivity interaction (KinomeScan (DiscoverX)) EUB0000655a LATS2; conditions: at 10 µM
T2 sequence (whole entry): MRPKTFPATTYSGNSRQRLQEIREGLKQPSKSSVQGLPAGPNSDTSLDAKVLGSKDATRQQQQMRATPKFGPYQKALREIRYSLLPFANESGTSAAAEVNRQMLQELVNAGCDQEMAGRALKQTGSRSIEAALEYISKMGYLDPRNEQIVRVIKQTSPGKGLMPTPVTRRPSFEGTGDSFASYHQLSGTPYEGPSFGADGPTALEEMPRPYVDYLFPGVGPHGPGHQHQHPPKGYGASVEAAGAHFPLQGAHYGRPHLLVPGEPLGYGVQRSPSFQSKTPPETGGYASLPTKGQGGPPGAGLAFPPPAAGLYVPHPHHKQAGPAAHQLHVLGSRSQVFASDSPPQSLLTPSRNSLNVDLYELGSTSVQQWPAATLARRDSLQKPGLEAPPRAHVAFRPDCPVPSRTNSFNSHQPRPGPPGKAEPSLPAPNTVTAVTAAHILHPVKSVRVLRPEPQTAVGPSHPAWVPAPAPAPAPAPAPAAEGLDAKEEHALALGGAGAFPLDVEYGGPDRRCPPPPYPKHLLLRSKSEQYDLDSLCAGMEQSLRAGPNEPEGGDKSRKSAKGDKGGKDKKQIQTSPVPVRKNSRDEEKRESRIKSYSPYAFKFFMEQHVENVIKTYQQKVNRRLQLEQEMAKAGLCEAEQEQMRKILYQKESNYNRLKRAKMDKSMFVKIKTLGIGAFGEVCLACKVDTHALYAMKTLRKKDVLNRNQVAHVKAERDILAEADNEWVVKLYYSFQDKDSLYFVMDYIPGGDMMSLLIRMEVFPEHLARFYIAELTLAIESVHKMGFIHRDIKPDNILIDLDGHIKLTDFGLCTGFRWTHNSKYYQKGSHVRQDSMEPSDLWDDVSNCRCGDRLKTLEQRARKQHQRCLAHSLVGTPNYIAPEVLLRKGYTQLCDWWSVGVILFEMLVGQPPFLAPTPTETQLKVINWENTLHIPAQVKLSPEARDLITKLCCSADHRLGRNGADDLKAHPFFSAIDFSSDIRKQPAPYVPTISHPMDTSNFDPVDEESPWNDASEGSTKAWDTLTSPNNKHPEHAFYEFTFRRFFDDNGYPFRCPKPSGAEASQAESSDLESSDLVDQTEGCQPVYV

[4] = target: Serine/threonine-protein kinase Nek4 (Homo sapiens) (UniProt P51957); experiment: Selectivity interaction (KinomeScan (DiscoverX)) EUB0000607a NEK4; conditions: at 10 µM
[5] = target: Activin receptor type-2A (Homo sapiens) (UniProt P27037); experiment: Selectivity interaction (KinomeScan (DiscoverX)) EUB0000045b ACVR2A
[6] = target: T3, Serine/threonine-protein kinase Sgk3 (Homo sapiens) (UniProt Q96BR1); experiment: Selectivity interaction (ProQinase) EUB0000171b SGK3
T3 sequence (whole entry): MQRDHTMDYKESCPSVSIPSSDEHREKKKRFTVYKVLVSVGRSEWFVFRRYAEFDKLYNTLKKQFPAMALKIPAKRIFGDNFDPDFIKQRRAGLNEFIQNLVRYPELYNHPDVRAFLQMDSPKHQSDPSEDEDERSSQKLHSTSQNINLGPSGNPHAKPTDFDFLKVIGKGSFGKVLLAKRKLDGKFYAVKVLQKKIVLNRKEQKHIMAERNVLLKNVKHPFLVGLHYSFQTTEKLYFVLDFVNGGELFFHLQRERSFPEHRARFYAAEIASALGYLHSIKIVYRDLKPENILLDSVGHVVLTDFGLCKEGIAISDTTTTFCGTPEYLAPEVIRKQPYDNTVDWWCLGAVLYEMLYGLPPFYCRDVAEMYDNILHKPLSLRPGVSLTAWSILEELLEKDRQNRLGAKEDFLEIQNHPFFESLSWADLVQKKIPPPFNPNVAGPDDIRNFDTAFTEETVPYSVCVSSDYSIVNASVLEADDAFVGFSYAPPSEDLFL

[7] = target: Tyrosine-protein kinase receptor UFO (Homo sapiens) (UniProt P30530); experiment: Selectivity interaction (KinomeScan (DiscoverX)) EUB0001049a AXL; conditions: at 1 µM
[8] = target: T4, 5-hydroxytryptamine receptor 2C (Homo sapiens) (UniProt P28335); experiment: Selectivity interaction (Panel of kinases, GPCRs, ion channels and transporters (enzymatic assay)) EUB0000266bCl HTR2C
T4 sequence (whole entry): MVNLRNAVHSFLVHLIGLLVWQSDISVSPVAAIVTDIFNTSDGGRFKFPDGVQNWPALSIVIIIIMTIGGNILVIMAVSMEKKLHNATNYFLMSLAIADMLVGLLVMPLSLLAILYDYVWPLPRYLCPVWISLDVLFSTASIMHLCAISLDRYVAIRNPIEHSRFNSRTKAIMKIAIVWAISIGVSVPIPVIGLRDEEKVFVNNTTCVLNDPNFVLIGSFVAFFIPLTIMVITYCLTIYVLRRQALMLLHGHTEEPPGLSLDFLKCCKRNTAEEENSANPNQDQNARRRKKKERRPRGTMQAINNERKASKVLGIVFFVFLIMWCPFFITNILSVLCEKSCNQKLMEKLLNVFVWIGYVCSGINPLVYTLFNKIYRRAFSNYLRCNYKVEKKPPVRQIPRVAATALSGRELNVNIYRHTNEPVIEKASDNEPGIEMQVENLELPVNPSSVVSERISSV

Chain of Activin receptor type-2A (Homo sapiens) (P27037 whole entry): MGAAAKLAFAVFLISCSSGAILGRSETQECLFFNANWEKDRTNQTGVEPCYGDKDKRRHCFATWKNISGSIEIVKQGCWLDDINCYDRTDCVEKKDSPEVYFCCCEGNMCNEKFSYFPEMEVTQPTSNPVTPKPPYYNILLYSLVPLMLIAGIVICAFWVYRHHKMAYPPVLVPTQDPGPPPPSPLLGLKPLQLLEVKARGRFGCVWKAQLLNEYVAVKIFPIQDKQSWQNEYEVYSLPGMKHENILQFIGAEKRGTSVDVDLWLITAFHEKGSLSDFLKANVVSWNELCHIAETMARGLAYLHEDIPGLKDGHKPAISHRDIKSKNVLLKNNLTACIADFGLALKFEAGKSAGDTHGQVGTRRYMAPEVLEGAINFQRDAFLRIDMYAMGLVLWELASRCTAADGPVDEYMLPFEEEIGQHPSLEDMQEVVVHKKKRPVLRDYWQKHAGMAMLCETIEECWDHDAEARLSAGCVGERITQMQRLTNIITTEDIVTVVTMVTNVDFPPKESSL
Chain of Voltage-dependent N-type calcium channel subunit alpha-1B (Homo sapiens) (Q00975 whole entry, looked up): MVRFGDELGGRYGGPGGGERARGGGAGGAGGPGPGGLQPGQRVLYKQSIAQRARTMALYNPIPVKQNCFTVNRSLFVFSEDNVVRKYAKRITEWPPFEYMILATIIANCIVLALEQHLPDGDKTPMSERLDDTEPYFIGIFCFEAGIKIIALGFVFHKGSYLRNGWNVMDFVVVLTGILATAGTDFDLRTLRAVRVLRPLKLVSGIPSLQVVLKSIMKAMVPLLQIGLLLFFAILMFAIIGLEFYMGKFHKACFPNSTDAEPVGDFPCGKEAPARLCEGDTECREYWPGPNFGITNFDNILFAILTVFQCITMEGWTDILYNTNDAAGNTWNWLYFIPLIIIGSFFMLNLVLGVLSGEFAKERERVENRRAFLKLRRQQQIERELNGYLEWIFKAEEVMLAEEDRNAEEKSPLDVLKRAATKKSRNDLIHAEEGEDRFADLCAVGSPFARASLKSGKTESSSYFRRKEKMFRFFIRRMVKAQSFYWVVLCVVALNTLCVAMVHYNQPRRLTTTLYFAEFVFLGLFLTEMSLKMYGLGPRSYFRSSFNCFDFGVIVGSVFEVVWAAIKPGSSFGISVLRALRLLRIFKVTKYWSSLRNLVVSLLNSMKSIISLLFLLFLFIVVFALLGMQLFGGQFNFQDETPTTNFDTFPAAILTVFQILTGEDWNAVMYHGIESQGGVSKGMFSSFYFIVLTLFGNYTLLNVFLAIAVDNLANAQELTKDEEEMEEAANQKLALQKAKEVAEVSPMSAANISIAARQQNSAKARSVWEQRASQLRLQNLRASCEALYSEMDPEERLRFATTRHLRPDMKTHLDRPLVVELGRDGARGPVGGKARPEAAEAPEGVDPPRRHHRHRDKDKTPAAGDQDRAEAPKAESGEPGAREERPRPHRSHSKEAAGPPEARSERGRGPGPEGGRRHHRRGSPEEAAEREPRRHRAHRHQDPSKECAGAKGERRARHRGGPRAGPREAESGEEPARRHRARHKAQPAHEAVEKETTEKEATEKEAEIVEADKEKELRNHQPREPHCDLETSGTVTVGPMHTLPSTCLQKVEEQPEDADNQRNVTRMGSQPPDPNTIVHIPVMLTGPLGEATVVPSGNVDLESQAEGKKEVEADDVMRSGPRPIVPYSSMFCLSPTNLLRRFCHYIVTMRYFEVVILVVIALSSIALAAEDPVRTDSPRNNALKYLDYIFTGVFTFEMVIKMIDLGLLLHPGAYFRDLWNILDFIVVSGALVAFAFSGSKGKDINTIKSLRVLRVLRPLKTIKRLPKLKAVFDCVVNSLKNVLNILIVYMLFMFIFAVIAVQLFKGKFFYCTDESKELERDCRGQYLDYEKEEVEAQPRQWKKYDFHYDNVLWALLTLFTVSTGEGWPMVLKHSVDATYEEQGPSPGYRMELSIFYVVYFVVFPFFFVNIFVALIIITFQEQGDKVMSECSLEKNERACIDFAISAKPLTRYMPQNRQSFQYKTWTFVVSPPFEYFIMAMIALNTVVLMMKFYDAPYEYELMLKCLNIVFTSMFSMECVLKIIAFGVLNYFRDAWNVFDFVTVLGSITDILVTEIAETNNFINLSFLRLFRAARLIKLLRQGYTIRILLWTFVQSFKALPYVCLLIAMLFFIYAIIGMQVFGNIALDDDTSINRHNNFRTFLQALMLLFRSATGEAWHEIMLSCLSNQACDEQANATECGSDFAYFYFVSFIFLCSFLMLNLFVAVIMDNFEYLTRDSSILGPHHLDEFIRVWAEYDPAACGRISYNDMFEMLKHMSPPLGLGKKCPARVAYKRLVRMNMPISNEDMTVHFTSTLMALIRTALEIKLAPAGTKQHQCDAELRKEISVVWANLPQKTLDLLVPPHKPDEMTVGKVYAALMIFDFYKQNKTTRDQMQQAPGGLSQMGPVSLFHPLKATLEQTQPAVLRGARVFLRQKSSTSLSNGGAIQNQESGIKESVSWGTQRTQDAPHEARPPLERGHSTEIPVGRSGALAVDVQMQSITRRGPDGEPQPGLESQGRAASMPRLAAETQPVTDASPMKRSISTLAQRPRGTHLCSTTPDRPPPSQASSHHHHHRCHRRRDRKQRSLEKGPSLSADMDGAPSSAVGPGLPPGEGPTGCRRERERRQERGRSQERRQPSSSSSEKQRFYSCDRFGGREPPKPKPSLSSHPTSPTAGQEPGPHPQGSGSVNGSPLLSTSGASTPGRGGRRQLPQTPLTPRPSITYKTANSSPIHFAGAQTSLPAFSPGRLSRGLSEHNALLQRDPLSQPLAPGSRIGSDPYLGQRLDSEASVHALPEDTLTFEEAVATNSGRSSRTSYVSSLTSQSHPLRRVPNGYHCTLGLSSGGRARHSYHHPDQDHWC
Chain of Serine/threonine-protein kinase Nek4 (Homo sapiens) (P51957 whole entry, looked up): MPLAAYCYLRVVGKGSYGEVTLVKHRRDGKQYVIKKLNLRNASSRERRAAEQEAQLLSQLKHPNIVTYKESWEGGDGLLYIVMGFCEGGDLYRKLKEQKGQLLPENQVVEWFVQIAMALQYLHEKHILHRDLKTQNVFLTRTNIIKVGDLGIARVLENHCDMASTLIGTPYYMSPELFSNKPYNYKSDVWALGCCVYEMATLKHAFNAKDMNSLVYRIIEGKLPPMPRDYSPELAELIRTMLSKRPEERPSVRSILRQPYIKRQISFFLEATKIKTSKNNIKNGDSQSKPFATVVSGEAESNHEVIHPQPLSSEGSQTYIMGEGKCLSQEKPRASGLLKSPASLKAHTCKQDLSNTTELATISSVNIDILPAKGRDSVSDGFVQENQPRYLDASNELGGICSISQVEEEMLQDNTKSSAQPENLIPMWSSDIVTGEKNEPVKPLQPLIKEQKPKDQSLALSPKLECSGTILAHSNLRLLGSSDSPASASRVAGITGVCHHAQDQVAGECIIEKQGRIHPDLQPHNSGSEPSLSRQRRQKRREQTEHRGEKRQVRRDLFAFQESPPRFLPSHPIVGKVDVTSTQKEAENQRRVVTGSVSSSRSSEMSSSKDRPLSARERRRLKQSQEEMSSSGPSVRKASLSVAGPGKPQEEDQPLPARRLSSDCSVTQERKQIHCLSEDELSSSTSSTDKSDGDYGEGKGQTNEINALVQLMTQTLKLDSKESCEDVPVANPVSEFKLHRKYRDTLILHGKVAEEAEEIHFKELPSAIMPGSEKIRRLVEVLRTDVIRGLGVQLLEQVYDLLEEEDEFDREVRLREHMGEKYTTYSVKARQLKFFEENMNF
Chain of Tyrosine-protein kinase receptor UFO (Homo sapiens) (P30530 whole entry): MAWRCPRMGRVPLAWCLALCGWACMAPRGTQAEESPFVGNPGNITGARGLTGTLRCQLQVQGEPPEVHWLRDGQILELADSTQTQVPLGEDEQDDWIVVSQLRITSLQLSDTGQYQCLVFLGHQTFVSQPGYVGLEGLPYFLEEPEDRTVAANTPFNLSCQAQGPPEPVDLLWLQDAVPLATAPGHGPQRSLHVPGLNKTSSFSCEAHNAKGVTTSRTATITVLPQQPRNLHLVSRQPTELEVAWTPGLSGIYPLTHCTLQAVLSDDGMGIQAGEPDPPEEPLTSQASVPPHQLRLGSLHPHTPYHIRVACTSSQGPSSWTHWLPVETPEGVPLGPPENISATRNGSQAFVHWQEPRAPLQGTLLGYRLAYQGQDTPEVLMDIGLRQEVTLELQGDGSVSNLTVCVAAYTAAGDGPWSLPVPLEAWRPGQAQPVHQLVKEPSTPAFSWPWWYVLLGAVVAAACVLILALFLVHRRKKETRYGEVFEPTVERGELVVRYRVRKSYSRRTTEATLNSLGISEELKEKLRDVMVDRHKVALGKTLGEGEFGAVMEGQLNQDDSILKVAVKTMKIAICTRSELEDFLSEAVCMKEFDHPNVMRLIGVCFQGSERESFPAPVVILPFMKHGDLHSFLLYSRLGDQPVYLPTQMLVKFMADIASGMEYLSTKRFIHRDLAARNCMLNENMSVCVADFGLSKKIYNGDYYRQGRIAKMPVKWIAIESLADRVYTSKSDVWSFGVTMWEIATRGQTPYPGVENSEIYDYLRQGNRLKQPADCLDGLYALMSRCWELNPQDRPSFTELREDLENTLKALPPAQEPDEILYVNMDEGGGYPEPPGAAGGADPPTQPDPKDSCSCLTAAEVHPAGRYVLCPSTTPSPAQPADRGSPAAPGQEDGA

% of control [1]: 115%
% of control [2]: 115%
SMILES: CC(=O)c1cc(-c2ccccc2OCC2CC2)c2ncccn12

SMILES: CN(C)CCOc1ccc(-c2nc(-c3ccncc3)c(-c3ccc4c(c3)CC/C4=N\O)[nH]2)cc1
% of control [3]: 45%

SMILES: CNC(=O)Nc1ccc(-c2nc(N3CC4CCC(C3)O4)c3cnn(C4CCC5(CC4)OCCO5)c3n2)cc1
% of control [4]: 82%

SMILES: C=CC(=O)Nc1cc(-n2c(=O)ccc3cnc4ccc(-c5ccc(NS(C)(=O)=O)cc5)cc4c32)ccc1C
% of control ([5]; at 1 µM): 94%
% of control ([5]; at 10 µM): 88%

% of control ([6]; at 1 µM): 82%
% of control ([6]; at 5 µM): 76%
SMILES: C=CC(=O)Nc1cccc(C(=O)Nc2ccc(Nc3cc(-c4[nH]c(SC)nc4C)ccn3)cc2)c1

SMILES: COc1cc(Nc2nc(C)cc(-c3cnn4nc(OC)ccc34)n2)cc(C(F)(F)F)c1
% of control [7]: 100%

pXC50 [8]: < 4.4 M
SMILES: CCn1c(-c2nc3cc(C(=O)N4CCCC(N)C4)ccc3n2C)cc2ccccc21 (stereo not given)
